Experimental data: patent US9839642B2, “Beta-tetrazolyl-propionic acids as metallo-beta-lactamase inhibitors” (priority 2014, dated 2017)
Like-named read-outs stand apart in the source and are kept apart here.

Tests used:
IMP-1 = IMP-1 (Serratia marcescens, UniProt P52699); experiment: Enzyme activity: determination of IC50, fluorescence assay with CCF2-FA substrate; type: biochemical; conditions: CCF2-FA 1.25 μM, 2 hours at 25° C., read-out: IMP1 IC50
Procedure, shortened: (§1)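 Enzyme at 1 pM (NDM-1), 2 pM (IMP-1) or 30 pM (VIM-1) was incubated with inhibitor (20 μM to 0.00063 μM) and 1.25 μM CCF2-FA in 100 mM KH2PO4 pH 7, 0.005% Tween-20, 10 μM ZnSO4 for 2 hours at 25° C. Fluorescence was read at ex 405/em 460 nm; IC50 from 4-parameter fit.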

NDM-1 = NDM-1 (Klebsiella pneumoniae, UniProt C7C422); experiment: as above; type: biochemical; conditions: CCF2-FA 1.25 μM, 2 hours at 25° C., read-out: NDM1 IC50
Procedure, shortened: as §1

VIM-1 = VIM-1 (Pseudomonas aeruginosa, UniProt A0A0F7KYQ8); experiment: as above; type: biochemical; conditions: CCF2-FA 1.25 μM, 2 hours at 25° C., read-out: VIM1 IC50
Procedure, shortened: as §1

[1] = tested on: Escherichia coli expressing NDM-1 (CLB30016); experiment: Antibiotic potentiation activity: synergistic concentration (MITC95) with imipenem, growth by OD600; type: cell-based
Procedure, shortened: (§2)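 Colonies from overnight agar plates (35 °C) were suspended in saline and diluted 1:100 into 1.1× CAMHB. Inhibitor (final 200 μM to 0.195 μM) was combined with imipenem at 1 or 4 μg/ml, incubated 22–24 h at 35 °C, and absorbance read; MITC95 is the lowest inhibitor concentration giving 95% growth inhibition.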

[2] = tested on: Klebsiella pneumoniae expressing VIM-1 (IHMA599644); experiment: as above; type: cell-based
Procedure, shortened: as §2

[3] = tested on: Serratia marcescens expressing IMP-1 (CL5741); experiment: as above; type: cell-based
Procedure, shortened: as §2

[4] = E. coli CLB30016 (NDM-1), 95% inhibition of growth
[5] = K. pneumoniae IHMA599644 (VIM-1), 95% inhibition of growth
[6] = S. marcescens CL5741 (IMP-1), 95% inhibition of growth
[7] = 95% inhibition of bacterial growth, strain CLB30016
[8] = 95% inhibition of bacterial growth, strain IHMA599644
[9] = 95% inhibition of bacterial growth, strain CL5741

NDM-1, sequence (C7C422 29-270, looked up, species assumed): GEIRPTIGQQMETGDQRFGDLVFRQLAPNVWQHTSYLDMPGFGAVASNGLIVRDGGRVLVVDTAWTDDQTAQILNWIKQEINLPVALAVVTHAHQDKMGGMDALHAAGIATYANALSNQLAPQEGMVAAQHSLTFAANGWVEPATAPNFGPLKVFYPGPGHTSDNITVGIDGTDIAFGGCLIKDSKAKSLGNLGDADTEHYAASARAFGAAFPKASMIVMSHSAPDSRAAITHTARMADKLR
IMP-1, sequence (P52699 19-246, looked up, species assumed): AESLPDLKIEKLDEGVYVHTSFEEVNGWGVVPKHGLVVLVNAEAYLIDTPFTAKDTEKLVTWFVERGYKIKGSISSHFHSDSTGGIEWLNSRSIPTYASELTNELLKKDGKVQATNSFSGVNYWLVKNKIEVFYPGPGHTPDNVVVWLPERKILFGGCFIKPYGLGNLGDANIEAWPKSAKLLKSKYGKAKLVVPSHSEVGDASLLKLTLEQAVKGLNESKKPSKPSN

Compound: CNC(=O)C1CCN(c2ccc(C[C@H](c3nnn[nH]3)[C@H](CC(C)C)C(=O)O)cn2)C1 (stereo partly drawn) [Example 305, (2S)-4-methyl-2-[(1S)-2-{6-[3-(methylcarbamoyl)pyrrolidin-1-yl]pyridin-3-yl}-1-(1H-tetrazol-5-yl)ethyl]pentanoic acid]
- IC50 (IMP-1; IMP-1 enzyme 2 pM): 0.25 µM
- IC50 (NDM-1; NDM-1 enzyme 1 pM): 0.12 µM
- IC50 (VIM-1; VIM-1 enzyme 30 pM): 0.012 µM
- NDM1 EC30016 MITC95 [1, 4]: 2.3 µM
- VIM1 KP599644 MITC95 [2, 5]: 25 µM
- IMP1 SM5741 MITC95 [3, 6]: 6.2 µM

Compound: CCC[C@H](C(=O)O)[C@H](Cc1ccc(C2CCN(C(=N)N)C2)nc1)c1nnn[nH]1 (stereo partly drawn) [Example 411, (2S)-2-((1S)-2-(6-(1-carbamimidoylpyrrolidin-3-yl)pyridin-3-yl)-1-(1H-tetrazol-5-yl)ethyl)pentanoic acid]
- IC50 (IMP-1; IMP-1 enzyme 2 pM): 2.77 µM
- IC50 (NDM-1; NDM-1 enzyme 1 pM): 0.179 µM
- IC50 (VIM-1; VIM-1 enzyme 30 pM): 0.00296 µM
- NDM1 EC30016 MITC95 [1, 4]: 4.688 µM
- VIM1 KP599644 MITC95 [2, 5]: 12.5 µM
- IMP1 SM5741 MITC95 [3, 6]: 50 µM

Compound: CCC[C@H](C(=O)O)[C@H](Cc1cccc(-c2cncc(CN3CCCCC3)c2)c1)c1nn[nH]n1 [Example 347, (2S)-2-[(1S)-2-{3-[5-(piperidin-1-ylmethyl)pyridin-3-yl]phenyl}-1-(2H-tetrazol-5-yl)ethyl]pentanoic acid]
- IC50 (IMP-1; IMP-1 enzyme 2 pM): 1.6 µM
- IC50 (NDM-1; NDM-1 enzyme 1 pM): 0.16 µM
- IC50 (VIM-1; VIM-1 enzyme 30 pM): 0.0065 µM
- NDM1 EC30016 MITC95 [1, 4]: 50 µM
- VIM1 KP599644 MITC95 [2, 5]: 25 µM
- IMP1 SM5741 MITC95 [3, 6]: 25 µM

Compound: CC(C)C[C@H](C(=O)O)[C@H](Cc1ccc(N2CCC(N)C2)nc1)c1nnn[nH]1 (stereo partly drawn) [Example 310, (2S)-2-[(1S)-2-[6-(3-aminopyrrolidin-1-yl)pyridin-3-yl]-1-(1H-tetrazol-5-yl)ethyl]-4-methylpentanoic acid]
- IC50 (IMP-1; IMP-1 enzyme 2 pM): 1.8 µM
- IC50 (NDM-1; NDM-1 enzyme 1 pM): 0.43 µM
- IC50 (VIM-1; VIM-1 enzyme 30 pM): 0.0046 µM
- NDM1 EC30016 MITC95 [1, 4]: 4.7 µM
- VIM1 KP599644 MITC95 [2, 5]: 12.5 µM
- IMP1 SM5741 MITC95 [3, 6]: 25 µM

Compound: CC(C)[C@H](C(=O)O)[C@H](Cc1ccc(C2CCNC2)c(F)c1)c1nnn[nH]1 (stereo partly drawn) [Example 109, (2S,3S)-4-(3-fluoro-4-(pyrrolidin-3-yl)phenyl)-2-isopropyl 3-(1H-tetrazol-5-yl)butanoic acid]
- IC50 (IMP-1; enzyme 2 pM): 0.45 µM
- IC50 (NDM-1; enzyme 1 pM): 0.017 µM
- IC50 (VIM-1; enzyme 30 pM): 0.0012 µM
- NDM1 EC30016 MITC95 [1, 7]: 3.1 µM
- VIM1 KP599644 MITC95 [2, 8]: 4.7 µM
- IMP1 SM5741 MITC95 [3, 9]: 12.5 µM

Compound: CCC[C@H](C(=O)O)[C@H](Cc1cnc(N(C)C)nc1)c1nnn[nH]1 [Example 290, (S)-2-((S)-2-(2-(dimethylamino)pyrimidin-5-yl)-1-(1H-tetrazol-5-yl)ethyl)pentanoic acid]
- IC50 (IMP-1; IMP-1 enzyme 2 pM): 14 µM
- IC50 (NDM-1; NDM-1 enzyme 1 pM): 0.11 µM
- IC50 (VIM-1; VIM-1 enzyme 30 pM): 0.0021 µM
- NDM1 EC30016 MITC95 [1, 4]: 18.8 µM
- VIM1 KP599644 MITC95 [2, 5]: 38 µM
- IMP1 SM5741 MITC95 [3, 6]: 150 µM

Compound: O=C(O)[C@@H](C1CCCC1)[C@H](Cc1ccc(-c2cn[nH]c2)cc1)c1nnn[nH]1 [Example 63, (2S,3S)-4-(4-(1H-pyrazol-4-yl)phenyl)-2-cyclopentyl-3-(1H-tetrazol-5-yl)butanoic acid]
- IC50 (IMP-1; enzyme 2 pM): 0.025 µM
- IC50 (NDM-1; enzyme 1 pM): 0.0045 µM
- IC50 (VIM-1; enzyme 30 pM): 0.0011 µM
- NDM1 EC30016 MITC95 [1, 7]: 6.2 µM
- VIM1 KP599644 MITC95 [2, 8]: 18.8 µM
- IMP1 SM5741 MITC95 [3, 9]: 2.0 µM

Compound: CC(C)[C@H](C(=O)O)[C@H](Cc1ccc(-c2ccc(CN)cc2)cc1)c1nnn[nH]1 [Example 74, (2S,3S)-4-(4′-(aminomethyl)-[1,1′-biphenyl]-4-yl)-2-isopropyl-3-(1H-tetrazol-5-yl)butanoic acid]
- IC50 (IMP-1; enzyme 2 pM): 0.11 µM
- IC50 (NDM-1; enzyme 1 pM): 0.034 µM
- IC50 (VIM-1; enzyme 30 pM): 0.018 µM
- NDM1 EC30016 MITC95 [1, 7]: 3.1 µM
- VIM1 KP599644 MITC95 [2, 8]: 12.5 µM
- IMP1 SM5741 MITC95 [3, 9]: 1.6 µM

Compound: CC(C)[C@H](C(=O)O)[C@H](Cc1ccc(-c2ccc(N)nc2)cc1)c1nnn[nH]1 [Example 73, (2S,3S)-4-(4-(6-aminopyridin-3-yl)phenyl)-2-isopropyl-3-(1H-tetrazol-5-yl)butanoic acid]
- IC50 (IMP-1; enzyme 2 pM): 0.04 µM
- IC50 (NDM-1; enzyme 1 pM): 0.0044 µM
- IC50 (VIM-1; enzyme 30 pM): 0.0071 µM
- NDM1 EC30016 MITC95 [1, 7]: 18.8 µM
- VIM1 KP599644 MITC95 [2, 8]: 37.5 µM
- IMP1 SM5741 MITC95 [3, 9]: 1.2 µM
